Results as given in patent US20260001914A1, “MACROCYCLIC PEPTIDES TARGETING KRAS” (Merck Sharp & Dohme LLC, priority 2022, published 2026).
pEC50: −log10 of the molar value. *1 amine or outer side, *2 acyl side, *3 side chain or, on linkers, in order; H or OH if unused. Where a SMILES comes first, the peptide text is derived from it. Bridges are numbered along the chain shown (N, C = ends). [ ]: non-standard residue; d: D form. X75 = CCC[C@H](N[*:1])c1nncn1[C@@H](Cc1ccccc1)C(=O)[*:2]; Phe(4-guanidino) = N=C(N)Nc1ccc(C[C@H](N)C(=O)O)cc1; Ala(pyrimidin-5-yl) = N[C@@H](Cc1cncnc1)C(=O)O; NMe3Pal(5-F) = CN[C@@H](Cc1cncc(F)c1)C(=O)O; NMePhe(3-Me) = CN[C@@H](Cc1cccc(C)c1)C(=O)O; X39 = CN([C@@H](Cc1cccnc1F)C(=O)[*:2])[*:1]; NMePhe(3-F) = CN[C@@H](Cc1cccc(F)c1)C(=O)O; Nle(5,5-F2) = CC(F)(F)CC[C@H](N)C(=O)O; Phe(4-Me) = Cc1ccc(C[C@H](N)C(=O)O)cc1; 1Nal = N[C@@H](Cc1cccc2ccccc12)C(=O)O; NHCH2CH2SCH2CO = O=C(CSCCN[*:1])[*:2]; Phe(2-F) = N[C@@H](Cc1ccccc1F)C(=O)O; NMe3Pal = CN[C@@H](Cc1cccnc1)C(=O)O; X1 = O=C(C12CC(CN[*:1])(C1)C2)[*:2]; X56 = O=C(C12CC(N[*:1])(C1)C2)[*:2]; NMeAad = CN[C@@H](CCCC(=O)O)C(=O)O; Ala(cPr) = N[C@@H](CC1CC1)C(=O)O; NMeF = CN[C@@H](Cc1ccccc1)C(=O)O; PhLac = O=C(O)[C@@H](O)Cc1ccccc1; 3Pal = N[C@@H](Cc1cccnc1)C(=O)O; d3Pal = N[C@H](Cc1cccnc1)C(=O)O; Ahp(2) = CCCCC[C@H](N)C(=O)O; Cba = N[C@@H](CC1CCC1)C(=O)O; hLeu = CC(C)CC[C@H](N)C(=O)O; X64 = O=C(C#CCN[*:1])[*:2]; αMeC = C[C@](N)(CS)C(=O)O; NMeA = CN[C@@H](C)C(=O)O; Nle = CCCC[C@H](N)C(=O)O

Biological target: KRAS-G12D protein (Homo sapiens, UniProt P01116, G12D)
Test: SOS-mediated nucleotide exchange assay (BODIPY-GDP / Tb-streptavidin TR-FRET)
Type: biochemical

Chain of KRAS-G12D protein (P01116 1-188 isoform P01116-2 G12D): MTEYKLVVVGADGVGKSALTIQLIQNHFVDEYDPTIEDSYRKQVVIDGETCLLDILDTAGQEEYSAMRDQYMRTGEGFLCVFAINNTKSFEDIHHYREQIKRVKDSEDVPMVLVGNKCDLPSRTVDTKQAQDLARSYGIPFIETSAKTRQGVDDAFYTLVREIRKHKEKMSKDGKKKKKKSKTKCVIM

SMILES | pEC50
CC(C)CC[C@@H]1NC(=O)[C@H](Cc2ccccc2F)NC(=O)[C@H](CC2CC2)NC(=O)[C@H](Cc2cncnc2)NC(=O)[C@H](C)N(C)C(=O)[C@H](Cc2ccccc2)OC(=O)C23CC(CNC(=O)[C@H](Cc4cncc(F)c4)N(C)C1=O)(C2)C3 [compound 282, cyclo(FLac-NMeA-PyrimAla-cPrA-Phe2F-hL-NMe3Pal5F-amBCP)] (cyclo([Ala(cPr)][Phe(2-F)][hLeu][NMe3Pal(5-F)][X1][PhLac][NMeA][Ala(pyrimidin-5-yl)])) | 8.70
COc1ccc(C[C@@H]2NC(=O)[C@H](CC3CCC3)NC(=O)[C@H](Cc3cccnc3)NC(=O)[C@H](CCCNC(=N)N)NC(=O)[C@H](Cc3ccccc3)NC(=O)CSC[C@](C)(C(N)=O)NC(=O)[C@@H]3CCCCCCCC[C@H](NC2=O)C(=O)N3C)cc1 (single isomer, unassigned) [SEQ ID NO: 191] | 6.49
CC(C)CC[C@@H]1NC(=O)[C@H](Cc2ccccc2F)NC(=O)[C@H](CC2CC2)NC(=O)[C@H](Cc2cncnc2)NC(=O)[C@H](C)N(C)C(=O)[C@H](Cc2ccccc2)OC(=O)C23CC(CNC(=O)[C@H](Cc4cccnc4F)N(C)C1=O)(C2)C3 [compound 336, cyclo(FLac-NMeA-PyrimAla-cPrA-Phe2F-hL-NMe3Pal2F-amBCP)] (cyclo([Ala(cPr)][Phe(2-F)][hLeu][X39][X1][PhLac][NMeA][Ala(pyrimidin-5-yl)])) | 8.30
CCCC[C@@H]1NC(=O)[C@H](Cc2cccnc2)NC(=O)[C@H](C)N(C)C(=O)[C@H](Cc2ccccc2)OC(=O)CSC[C@@](C)(C(N)=O)NC(=O)[C@H](Cc2cccnc2)N(C)C(=O)[C@H](CCCC)NC(=O)[C@H](Cc2ccccc2F)NC1=O [compound 398, cyclo(FLac-NMeA-3Pal-Nlc-Phe2F-Nle-NMe3Pal-aMeCl-ClAc)] ({CH2CO}-[PhLac][NMeA][3Pal][Nle][Phe(2-F)][Nle][NMe3Pal][αMeC]-NH2; thioether N-8) | 8.42
CCCC[C@@H]1NC(=O)[C@H](Cc2cccnc2)NC(=O)[C@H](C)N(C)C(=O)[C@H](Cc2ccccc2)OC(=O)C23CC(CNC(=O)[C@H](Cc4ccccc4)N(C)C(=O)[C@H](CCCC)NC(=O)[C@H](Cc4ccccc4F)NC1=O)(C2)C3 [compound 236, cyclo(FLac-NMeA-3Pal-Nle-Phe2F-Nle-NMeF-amBCP)] (cyclo([3Pal][Nle][Phe(2-F)][Nle][NMeF][X1][PhLac][NMeA])) | 7.30
CCCCC[C@@H]1NC(=O)[C@H](Cc2ccc(OC)cc2)NC(=O)[C@H](CC2CCC2)NC(=O)[C@H](Cc2cncnc2)NC(=O)[C@H](CCCNC(=N)N)NC(=O)[C@H](Cc2ccccc2)NC(=O)CSC[C@@](C)(C(N)=O)NC(=O)[C@H](Cc2ccccc2)N(C)C1=O [compound 367, cyclo(F-R-PyrimAla-cBuA-TyrOMe-Ahp-NMeF-aMeCl-ClAc)] ({CH2CO}-FR[Ala(pyrimidin-5-yl)][Cba]Y(Me)[Ahp(2)][NMeF][αMeC]-NH2; thioether N-8) | 8.39
CCCC[C@@H]1NC(=O)[C@H](Cc2cccnc2)NC(=O)[C@H](C)N(C)C(=O)[C@H](Cc2ccc(C)cc2)NC(=O)C23CC(CNC(=O)[C@H](Cc4cccnc4)N(C)C(=O)[C@H](CCCC)NC(=O)[C@H](Cc4ccccc4F)NC1=O)(C2)C3 [compound 170, cyclo(Phe4Me-NMeA-3Pal-Nle-Phe2F-Nle-NMe3Pal-amBCP)] (cyclo([3Pal][Nle][Phe(2-F)][Nle][NMe3Pal][X1][Phe(4-Me)][NMeA])) | 7.04
CCCC[C@@H]1NC(=O)[C@H](Cc2ccc(O)cc2)NC(=O)[C@H](CC(C)C)NC(=O)[C@H](Cc2ccc(O)cc2)NC(=O)[C@H](CCCNC(=N)N)NC(=O)[C@H](Cc2cccc3ccccc23)NC(=O)CSC[C@H](C(N)=O)NC(=O)[C@H](Cc2ccccc2)N(C)C1=O [compound 17, cyclo(INal-R-Y-L-Y-Nle-NMeF-dCl-ClAc)] ({CH2CO}-[1Nal]RYLY[Nle][NMeF][dC]-NH2; thioether N-8) | 5.98
CCCCC[C@@H]1NC(=O)[C@H](Cc2ccc(OC)cc2)NC(=O)[C@H](CC2CCC2)NC(=O)[C@H](Cc2cccnc2)NC(=O)[C@H](CCCNC(=N)N)NC(=O)[C@H](Cc2ccccc2)NC(=O)CSC[C@@](C)(C(N)=O)NC(=O)[C@H](Cc2ccccc2)N(C)C1=O [compound 347, cyclo(F-R~3Pal-cBuA-TyrOMe-Ahp-NMeF-aMeCl-ClAc)] | 8.24
CCCC[C@@H]1NC(=O)[C@H](CCCCN)NC(=O)[C@H](CCCNC(=N)N)NC(=O)[C@H](Cc2cccc3ccccc23)NC(=O)CSCCNC(=O)[C@H](Cc2ccccc2)N(C)C(=O)[C@H](CCCC)NC(=O)[C@H](Cc2ccc(O)cc2)NC1=O [compound 71, cyclo(INal-R-K-Nle-Y-Nle-NMeF-Cysteamine-ClAc)] (cyclo([1Nal]RK[Nle]Y[Nle][NMeF][NHCH2CH2SCH2CO])) | 6.28
CCCC[C@@H]1NC(=O)[C@H](Cc2cncnc2)NC(=O)[C@H](C)N(C)C(=O)[C@H](Cc2ccccc2)OC(=O)C23CC(CNC(=O)[C@H](Cc4cccc(C)c4)N(C)C(=O)[C@H](CCCC)NC(=O)[C@H](Cc4ccccc4F)NC1=O)(C2)C3 [compound 172, cyclo(FLac-NMeA-PyrimAla-Nle-Phe2F-Nle-NMePhe3Me-amBCP)] (cyclo([NMeA][Ala(pyrimidin-5-yl)][Nle][Phe(2-F)][Nle][NMePhe(3-Me)][X1][PhLac])) | 8.22
CCCC[C@@H]1NC(=O)[C@H](Cc2cncnc2)NC(=O)[C@H](C)N(C)C(=O)[C@H](Cc2ccccc2)OC(=O)C23CC(CNC(=O)[C@H](Cc4cccc(F)c4)N(C)C(=O)[C@H](CCCC)NC(=O)[C@H](Cc4ccccc4F)NC1=O)(C2)C3 [compound 174, cyclo(FLac-NMeA-PyrimAla-Nle-Phe2F-Nle-NMePhe3F-amBCP)] (cyclo([NMeA][Ala(pyrimidin-5-yl)][Nle][Phe(2-F)][Nle][NMePhe(3-F)][X1][PhLac])) | 7.91
CCCC[C@@H]1NC(=O)[C@H](Cc2ccccc2F)NC(=O)[C@H](CC2CCC2)NC(=O)[C@@H](Cc2cccnc2)NC(=O)[C@H](CCCNC(=N)N)NC(=O)[C@H](Cc2ccccc2)NC(=O)C23CC(C2)(C3)NC(=O)[C@H](Cc2cccnc2)N(C)C1=O [compound 108, cyclo(F-R-d3Pal-cBuA-Phe2F-Nle-NMe3Pal-BCP)] (cyclo(FR[d3Pal][Cba][Phe(2-F)][Nle][NMe3Pal][X56])) | 5.95
CCCC[C@@H]1NC(=O)[C@H](Cc2cncnc2)NC(=O)[C@H](C)N(C)C(=O)[C@H](Cc2ccccc2)OC(=O)C23CC(CNC(=O)[C@H](Cc4ccccc4)N(C)C(=O)[C@H](CCCC)NC(=O)[C@H](Cc4ccccc4F)NC1=O)(C2)C3 [compound 230, cyclo(FLac-NMeA-PyrimAla-Nle-Phe2F-Nle-NMeF-amBCP)] (cyclo([NMeA][Ala(pyrimidin-5-yl)][Nle][Phe(2-F)][Nle][NMeF][X1][PhLac])) | 7.76
CCCC[C@@H]1NC(=O)[C@H](Cc2ccc(NC(=N)N)cc2)NC(=O)[C@H](CCCNC(=N)N)NC(=O)[C@H](Cc2cccc3ccccc23)NC(=O)CNC(=O)[C@@H](C)NC(=O)[C@H](Cc2ccccc2)N(C)C(=O)[C@H](CCCC)NC(=O)[C@H](Cc2ccc(O)cc2)NC1=O [compound 200, cyclo(1Nal-R-Phe4Gn-Nle-Y-Nle-NMeF-dA-G)] (cyclo([1Nal]R[Phe(4-guanidino)][Nle]Y[Nle][NMeF][dA]G)) | 7.28
C[C@H]1C(=O)N[C@@H](Cc2cncnc2)C(=O)N[C@@H](CC2CCC2)C(=O)N[C@@H](Cc2ccccc2F)C(=O)N[C@@H](CCC(C)(F)F)C(=O)N(C)[C@@H](Cc2ccccc2)C(=O)NCC23CC(C2)(C3)C(=O)O[C@@H](Cc2ccccc2)C(=O)N1C [compound 224, cyclo(FLac-NMcA-PyrimAla-cBuA-Phe2F-Nle3F2-NMeF-amBCP)] (cyclo([Cba][Phe(2-F)][Nle(5,5-F2)][NMeF][X1][PhLac][NMeA][Ala(pyrimidin-5-yl)])) | 8.62
CCCC[C@@H]1NC(=O)[C@H](Cc2cccnc2)NC(=O)[C@H](CCCC(=O)N(C)C)N(C)C(=O)[C@H](Cc2ccccc2)OC(=O)C23CC(CNC(=O)[C@H](Cc4cccnc4)N(C)C(=O)[C@H](CCCC)NC(=O)[C@H](Cc4ccccc4F)NC1=O)(C2)C3 [compound 408, cyclo(FLac-hQdm-3Pal-Nle-Phe2F-Nle-NMe3Pal-amBCP)] (cyclo([3Pal][Nle][Phe(2-F)][Nle][NMe3Pal][X1][PhLac][NMeAad](NMe2))) | 6.79
CCCC[C@@H]1NC(=O)[C@H](Cc2cccnc2)NC(=O)[C@H](CCCNC(=N)N)NC(=O)[C@H](Cc2ccccc2)OC(=O)C23CC(CNC(=O)[C@H](Cc4ccccc4)N(C)C(=O)[C@H](CCCC)NC(=O)[C@H](Cc4ccccc4F)NC1=O)(C2)C3 [compound 212, cyclo(FLac-R-3Pal-Nle-Phe2F-Nle-NMeF-amBCP)] (cyclo([PhLac]R[3Pal][Nle][Phe(2-F)][Nle][NMeF][X1])) | 7.68
CCCC[C@@H]1NC(=O)[C@H](Cc2ccccc2F)NC(=O)[C@H](CC2CCC2)NC(=O)[C@@H](Cc2cccnc2)NC(=O)[C@H](CCCNC(=N)N)NC(=O)[C@H](Cc2ccccc2)NC(=O)C#CCNC(=O)[C@H](Cc2cccnc2)N(C)C1=O [compound 104, cyclo(F-R-d3Pal-cBuA-Phe2F-Nle-NMe3Pal-amBYA)] (cyclo(FR[d3Pal][Cba][Phe(2-F)][Nle][NMe3Pal][X64])) | 6.41
CCC[C@@H]1NC(=O)[C@H](Cc2ccc(OC)cc2)NC(=O)[C@H](CC2CCC2)NC(=O)[C@H](Cc2cccnc2)NC(=O)[C@H](CCCNC(=N)N)NC(=O)[C@H](Cc2ccccc2)NC(=O)CSC[C@H](C(N)=O)NC(=O)[C@H](Cc2ccccc2)n2cnnc21 [SEQ ID NO: 64, cyclo(F-R-3Pal-cBuA- TyrOMe-124triazole- dC-ClAc)] ({CH2CO}-FR[3Pal][Cba]Y(Me)[X75][dC]-NH2; thioether N-7) | 5.55
CCCCC[C@@H]1NC(=O)[C@H](Cc2ccc(OC)cc2)NC(=O)[C@H](CC2CCC2)NC(=O)[C@H](Cc2ccc(C)nc2)NC(=O)[C@H](CCCNC(=N)N)NC(=O)[C@H](Cc2ccccc2)NC(=O)CSC[C@@](C)(C(N)=O)NC(=O)[C@H](Cc2ccccc2)N(C)C1=O [compound 364, cyclo(F-R-4Me3Pal-cBuA-TyrOMe-Ahp-NMeF-aMeCl-ClAc)] | 7.47
